Measured values published in ChEMBL document CHEMBL1155666, “Zygosporin D and two new cytochalasins produced by the fungus Metarrhizium anisopliae” (2000).

What was measured:
Oryza sativa [1] = test: Growth retardation of rice seedlings assessed as second leaf sheath length at 1 nmol after 72 hrs exposure to continuous fluorescent light relative to control; assay type: functional
Oryza sativa [2] = test: Growth retardation of rice seedlings assessed as reduction in second leaf sheath length at 1 nmol after 72 hrs exposure to continuous fluorescent light relative to water; assay type: functional; parameters: scale not given: the % may be the effect or the level left

Structure (SMILES) | Activity (Oryza sativa [1]) [%] | Activity (Oryza sativa [2]) [%]
C[C@H]1[C@H]2[C@H](Cc3ccccc3)NC(=O)[C@]23[C@H](O)/C=C/[C@@](C)(O)C(=O)[C@@H](C)C/C=C/[C@H]3C(=O)[C@@H]1C | 94 | 
CC1=C(C)[C@H]2[C@H](Cc3ccccc3)NC(=O)[C@]23[C@H](O)/C=C/[C@@](C)(O)C(=O)[C@@H](C)C/C=C/[C@H]3[C@@H]1O [DEACETYLCYTOCHALASIN C] | 83 | 
C=C1[C@@H](C)[C@H]2[C@H](Cc3ccccc3)NC(=O)[C@]23[C@H](O)/C=C/[C@@](C)(O)C(=O)[C@@H](C)C/C=C/[C@H]3[C@@H]1O [ZYGOSPORIN D] |  | 41
